From ChEMBL document CHEMBL5614395 (Eur J Med Chem, 2024)

Test: in vitro
Settings: human, Caco-2

SMILES	Papp A→B [×10⁻⁶ cm/s]
COc1cc(-n2ncc3c(-c4cccc(-c5ccc(CN[C@H]6C[C@@H](O)C6)c(OC)n5)c4Cl)cccc32)cc(OC)c1CN1CC(C(=O)O)C1	0.1
COc1cc(-n2ncc3c(-c4cccc(-c5ccc(CN(C)C67CCC(C(=O)O)(CC6)CC7)c(OC)n5)c4Cl)cccc32)cc(OC)c1CN(C)[C@H]1C[C@H](O)C1	3
COc1cc(-n2ncc3c(-c4cccc(-c5ccc(CN[C@H]6C[C@@H](O)C6)c(OC)n5)c4Cl)cccc32)cc(OC)c1CN(C)C12CCC(C(=O)O)(CC1)CC2	0.4
